From the supplement of paper PMC10307832

Columns and labels:
Experiment in all cases: relative viability (nuclei count vs DMSO), 5 days (fraction); higher = more cells survive
[1] = compound: C=CCn1c(=O)c2cnc(Nc3ccc(N4CCN(C)CC4)cc3)nc2n1-c1cccc(C(C)(C)O)n1 [Adavosertib] + CC(C)C[C@H](NC(=O)[C@H](Cc1ccccc1)NC(=O)c1cnccn1)B(O)O [Bortezomib] (partner 0.002 µM)
Method in brief: (§1)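 Lung cancer cell lines were pin-tool dosed in 1536-well plates on the day after seeding, with either a lone drug or a fixed anchor-drug dose plus five library-drug doses (not always all listed) in √10 steps. Nuclei were counted on 4× images after 5 days. Relative viability is the ratio of treated-well to vehicle-well nuclei counts, with each value a median of duplicate plates.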

[2] = compound: C=CCn1c(=O)c2cnc(Nc3ccc(N4CCN(C)CC4)cc3)nc2n1-c1cccc(C(C)(C)O)n1 [Adavosertib] + O=C(CCCCCCC(=O)Nc1ccccc1)NO [Vorinostat] (partner 1 µM)
Method in brief: as §1

[3] = compound: COc1nc(N)nc2c1ncn2[C@@H]1O[C@H](CO)[C@@H](O)[C@@H]1O [Nelarabine] + N=C(N)NC(=N)NCCc1ccccc1 [Phenformin] (partner 250 µM)
Method in brief: as §1

[4] = compound: COc1nc(N)nc2c1ncn2[C@@H]1O[C@H](CO)[C@@H](O)[C@@H]1O [Nelarabine] + NC(=O)Nc1cc(-c2cccc(F)c2)sc1C(=O)N[C@H]1CCCNC1 [AZD7762] (partner 0.2 µM)
Method in brief: as §1

Row | Cell Line | relative viability ([1]; first compound 0.01 µM) | relative viability ([1]; first compound 0.03162 µM) | relative viability ([1]; first compound 0.1 µM) | relative viability ([1]; first compound 0.3162 µM) | relative viability ([2]; first compound 0.01 µM) | relative viability ([2]; first compound 0.03162 µM) | relative viability ([2]; first compound 0.1 µM) | relative viability ([2]; first compound 0.3162 µM) | relative viability ([3]; first compound 0.01 µM) | relative viability ([3]; first compound 0.03162 µM) | relative viability ([3]; first compound 0.1 µM) | relative viability ([3]; first compound 0.3162 µM) | relative viability ([3]; first compound 1 µM) | relative viability ([4]; first compound 0.01 µM) | relative viability ([4]; first compound 0.03162 µM) | relative viability ([4]; first compound 0.1 µM) | relative viability ([4]; first compound 0.3162 µM) | relative viability ([4]; first compound 1 µM)
1 | HCC-366 | 1.03 | 1.05 | 1.1 | 1.05 | 0.353 | 0.411 | 0.319 | 0.219 | 0.644 | 0.602 | 0.663 | 0.585 | 0.589 | 0.371 | 0.217 | 0.228 | 0.411 | 0.287
2 | HCC-78 | 0.542 | 0.46 | 0.529 | 0.573 | 0.492 | 0.437 | 0.473 | 0.42 | 0.709 | 0.684 | – | 0.709 | 0.701 | 0.708 | 0.673 | – | 0.764 | 0.564
3 | NCI-H358 | – | – | – | – | 0.622 | 0.597 | 0.637 | 0.219 | 0.441 | 0.308 | 0.305 | 0.356 | 0.377 | 0.605 | 0.395 | 0.386 | 0.501 | 0.586
4 | NCI-H23 | 0.97 | 1.05 | 0.844 | 0.327 | 0.627 | 0.469 | 0.401 | 0.185 | 0.778 | 0.766 | 0.684 | 0.847 | 0.79 | 0.205 | 0.227 | 0.241 | 0.232 | 0.25
5 | PC-14 | 1.05 | 0.873 | 0.926 | 0.334 | 0.841 | 0.85 | 0.638 | 0.183 | 0.645 | 0.46 | 0.67 | 0.556 | 0.447 | 0.382 | 0.319 | 0.447 | 0.417 | 0.304
6 | SW 900 | – | – | – | – | 0.445 | 0.492 | 0.424 | 0.268 | 0.592 | 0.583 | 0.546 | 0.784 | 0.635 | 0.636 | 0.569 | 0.556 | 0.645 | 0.535
7 | NCI-H1650 | 0.223 | 0.211 | 0.207 | 0.194 | 0.63 | 0.731 | 0.485 | 0.389 | 0.39 | 0.427 | 0.379 | 0.436 | 0.445 | – | – | – | – | –
8 | H3255 | 0.539 | 0.885 | 0.699 | 0.845 | 0.763 | 0.908 | 0.828 | 1 | – | 0.361 | 0.341 | 0.321 | 0.337 | 0.835 | 0.933 | 0.938 | 0.854 | 0.95
9 | NCI-H1563 | 0.9 | 0.901 | 0.86 | 0.869 | – | – | – | – | 0.707 | 0.665 | 0.63 | 0.73 | 0.665 | – | – | – | – | –
10 | A549 | – | – | – | – | – | – | – | – | 0.209 | 0.116 | 0.161 | 0.119 | 0.143 | – | – | – | – | –
11 | UMC-11 | 0.737 | 0.481 | 0.927 | 0.708 | 0.438 | 0.405 | 0.346 | 0.308 | 0.33 | 0.325 | 0.347 | 0.294 | 0.31 | – | – | – | – | –
12 | LOU-NH91 | 0.484 | 0.502 | 0.502 | 0.489 | 0.882 | 0.99 | 0.908 | 0.896 | 0.49 | 0.782 | 0.741 | 0.768 | 0.751 | 0.868 | 0.69 | 0.78 | 0.732 | 0.69
13 | NCI-H1299 | 1.02 | 1.03 | 1.09 | 1.02 | – | – | – | – | – | – | – | – | – | – | – | – | – | –
14 | HCC-44 | 0.889 | 0.95 | 0.89 | 1.04 | 1.09 | 1.06 | 1.09 | 1.07 | 0.194 | 0.157 | 0.173 | 0.167 | 0.185 | 1.01 | 0.951 | 1.05 | 0.999 | 0.955
15 | NCI-H1437 | 0.56 | 0.596 | 0.475 | 0.518 | 0.985 | 0.784 | 0.936 | 0.816 | 0.304 | 0.309 | 0.318 | 0.302 | 0.325 | 1.24 | 1.17 | 1.15 | 1.15 | 1.09
16 | HARA | 0.981 | 1.17 | 1.13 | 0.938 | 0.485 | 0.629 | 0.592 | 0.587 | 0.62 | 0.488 | 0.422 | 0.579 | 0.505 | 0.426 | 0.284 | 0.307 | 0.441 | 0.373
17 | EBC-1 | 0.719 | 0.653 | 0.562 | 0.493 | – | – | – | – | – | – | – | – | – | – | – | – | – | –
18 | NCI-H2085 | 1.04 | 1.05 | 1.05 | 1.11 | 0.782 | 0.807 | 0.765 | 0.649 | 0.73 | 0.703 | 0.669 | 0.69 | 0.767 | 1.11 | 1.04 | 0.996 | 1.12 | 0.987
19 | NCI-H322M | – | 1.17 | 1.2 | 0.869 | 0.782 | 0.842 | 0.722 | 0.564 | 0.819 | 0.716 | 0.762 | 0.776 | 0.745 | 0.559 | 0.553 | 0.522 | 0.595 | 0.507
20 | NCI-H1355 | 1.15 | 1.17 | 1.18 | 1.16 | 0.609 | 0.649 | 0.679 | 0.568 | 0.442 | 0.413 | 0.418 | 0.433 | 0.455 | 0.935 | 0.608 | 0.657 | 0.804 | 0.822
21 | COR-L 105 | 0.984 | 0.719 | 0.855 | 0.627 | 0.892 | 0.848 | 0.898 | 0.677 | 0.497 | 0.594 | 0.473 | 0.454 | 0.458 | – | – | – | – | –
22 | 201T | 1.06 | 1.06 | 1.16 | 1.14 | 0.953 | 1.01 | 0.95 | 1.05 | 0.459 | 0.416 | 0.451 | 0.433 | 0.417 | 0.774 | 0.547 | 0.609 | 0.653 | 0.612
